1 molecule from patent US20190161516A1, “PROTEASOME INHIBITORS” (University of Kentucky Research Foundation, priority 2017, published 2019) can be followed below.

Broadly, the pIC50 is the negative decadic logarithm of the IC50, by convention in mol/L.

In test [1] the test system is Chymotrypsin-like activity (β5/β5i). The experiment in a line: Proteasome inhibitory activity, subunit-specific cell lysate IC50, chymotrypsin-like activity. The test is classed as biochemical.
The test system of test [2] is APPsw transgenic mouse (Tg2576) and LPS-induced mice (ICR strain). The experiment in a line: Morris water maze test in AD mouse models. The test is classed as in vivo. Particulars: FIG. 12A-12D. Here is the method:
These two compounds were used to investigate the impacts of LMP2 inhibition on cognitive deficits in two animal models of human Alzheimer's disease (AD). In these AD models, AD develops by Aβ deposition (APPsw transgenic mouse) or lipopolysaccharide (LPS)-induced neuroinflammation. For the APPsw transgenic model, also known as Tg2576, 10-month old APPsw mice were treated i.p. with LMP2 inhibitors twice a week for 3 weeks. […] Once treatments were finished, Morris water maze test was performed. All mice were trained for three times a day for 5 days before the test. The escape latency and distance traveled were recorded on a daily-basis over a 5-day period. […] This supports that the efficacy of LMP2 inhibitors is mediated through LMP2 inhibition. One day after the completion of Morris water maze test, the ability of mouse to maintain memory was evaluated by probe trials. […] Sequentially, a step-through latency test was performed a day after the probe trial. […]
The learning trials were conducted over 5 days, with 4 trials per day, with three randomized starting points. […] Swimming pattern of each mouse was monitored and recorded by a camera mounted above the center of the pool, and the escape latency, escape distance and swimming speed were assessed by the SMART-LD program (Panlab, Spain). […]

Test [3] concerns neuronal tissues from the brains of APPsw mice. Kind of test: Cresyl violet staining of neuronal tissues. It is filed as in vivo. The settings on record: APPsw mouse model, FIG. 10. An excerpt: Since LMP2 inhibitors had no effects on Aβ or tau aggregation, we wondered if these compounds are simply protecting neurons from cell death caused by Aβ or LPS. To examine this, we performed Cresyl violet staining experiments on neuronal tissues isolated from the brains of APPsw mice.
Frozen brain tissues were cut into 30 μm sections by using cryostat microtome (Leica CM1850; Leica Microsystems, Korea). The pieces of brain were thoroughly washed with PBS to remove the excess fixative agent, and then transferred to gelatin coated slices and stained with 0.1% Cresyl violet (2-5 minutes) to identify cortical layers and cytoarchitectural features of isocortical region. Next, the sections were washed with distill water and dehydrated by using ascending grades of ethanol (50%, 70%, 90%, and 100%) for 2 min in each grade followed by a 1-min immersion in a 1:1 mixture of absolute alcohol and xylene. The sections were then rinsed with xylene for 5-10 min and mounted with mounting medium (CYTOSEAL™ XYL; Thermo Scientific, USA). The tissue was photographed (100×) in the same areas.

A further test deals with T1, LMP7/β5i (Homo sapiens, UniProt P20618+P28062).
T1 construct: purchased R&D Systems
The experiment in a line: Proteasome activity assay, purified 20S proteasome, Ac-ANW-AMC. The test is classed as biochemical. Here is the method:
Purified 20S human proteasomes (CP and IP, R&D Systems) were used to assess the in vitro inhibition of proteasome catalytic activity by LMP2 inhibitors. […] Reactions were initiated by the addition of fluorogenic substrates containing the AMC (7-amino-4-methylcoumarin) group. Specifically, the following substrates were used: Suc-LLVY-AMC (CT-L activity, 100 μM), Ac-PAL-AMC (LMP2, 100 μM), Ac-WLA-AMC (β5, 20 μM), Ac-nLPnLD-AMC (β1,100 μM), Ac-RLR-AMC (β2/2i, 20 μM), and Ac-ANW-AMC (β5i, 100 μM). The fluorescence of liberated AMC was measured over a period of 90 min at 360 and 460 nm on a SpectraMax M5 fluorescence plate reader (Molecular Devices). For the proteasome activity of brain tissues isolated from AD mice, tissues were homogenized in RIPA buffer (50 mM Tris Cl, pH 7.4, 150 mM NaCl, 5 mM EDTA, 1% Nonidet P-40, 1% sodium deoxycholate, 0.1% SDS, 1% aprotinin, 50 mM NaF) and sonicated. Samples were centrifuged for 40 min at 14,000×g (4° C.). Protein concentration was determined using the Bradford Assay according to the manufacturer's protocol. Finally, samples were loaded onto a 96-well plate followed by the addition of the substrate (Ac-PAL-AMC) at 37° C. Fluorescence was recorded for 90 min using a Synergy-HT (Bio Tek) plate reader.

Test [4] has as its system Aβ deposition in APPsw mouse brain. Kind of test: Aβ in hippocampal tissues by ELISA and Thioflavin T staining. The test is classed as in vivo. The settings on record: versus APPsw control, FIG. 9. An excerpt: Given the data showing improved learning and memory of LMP2 inhibitor-treated mice and the role of Aβ deposition in memory dysfunction, we suspected that LMP2 inhibitors promote Aβ clearance in the brain of APPsw mice. To test this, we measured the expression levels of Aβ in hippocampal tissues isolated from the brains of APPsw mouse, using a ELISA-based assay and Thioflavin T (ThT) staining. […] Taken together, it appears that LMP2 inhibitors exert its anti-AD efficacy in these animal models independent of Aβ deposition. […] As a result, tau protein has become a prominent target for developing disease-modifying drugs. Given this, we wondered whether LMP2 inhibitors could block tau aggregation. To test this, we used HEK293-tau-BiFC cells to monitor the impacts of LMP2 inhibitors on tau aggregation.
Aβ1-42 levels were determined using specific ELISA Kit (Cusabio Biotech Co., Ltd., Wilmington, Del., USA). Experiments were performed according to each manufacturer's instructions. In brief, samples and standards were added into the pre-coated plate and incubated for 2 hours at 37° C. […] The absorbance was measured at 450 nm using a microplate reader (Sunrise™, TECAN, Switzerland) after adding stop solution.
Frozen brain tissues were cut into 30 μm sections by using cryostat microtome (Leica CM1850; Leica Microsystems). […] The Thioflavin T staining was examined by using a fluorescence microscope.

Molecules are shown by their SMILES. pIC50: −log10 of the molar value.

With `CC(=O)NCC(=O)N1CCC[C@H]1C(=O)N[C@@H](Cc1ccccc1)C(=O)N[C@@H](CC(C)C)C(=O)[C@@]1(C)CO1` [YU102], the pIC50 (in test [1]; at LMP7/β5i) was < 5.00 throughout. Besides, the “cognitive deficits in the APPsw mice” value in test [2] is “ameliorates cognitive deficits”. Besides, in test [3], the neuroprotective effects entry was “no neuroprotective effects”. The Aβ deposition entry in test [4] is listed as “no difference in Aβ deposition”.
